Each block holds one compound with its values, some of them ahead of it.
Key:
5HT1A = biological target: T1, 5HT1A (Homo sapiens, UniProt P08908); assay: GTPγS assay for 5HT1A agonist activity; format: biochemical; details: bound [35S]GTPγS relative to serotonin response
T1 construct: expressed in transfected cells; host or cells: CHO cells (Chinese hamster)
T1 sequence (P08908 1-422): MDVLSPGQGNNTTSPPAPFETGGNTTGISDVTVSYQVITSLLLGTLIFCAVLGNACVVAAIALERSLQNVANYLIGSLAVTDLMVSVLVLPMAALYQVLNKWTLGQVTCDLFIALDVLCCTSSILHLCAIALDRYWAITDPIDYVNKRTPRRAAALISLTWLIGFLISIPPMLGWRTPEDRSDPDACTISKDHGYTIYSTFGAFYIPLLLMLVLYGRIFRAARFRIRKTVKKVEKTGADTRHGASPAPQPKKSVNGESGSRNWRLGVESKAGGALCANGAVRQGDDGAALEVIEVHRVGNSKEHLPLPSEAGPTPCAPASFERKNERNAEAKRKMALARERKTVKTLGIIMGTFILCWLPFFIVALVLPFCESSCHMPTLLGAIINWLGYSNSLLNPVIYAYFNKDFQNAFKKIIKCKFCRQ
Procedure: Selected compounds were tested for 5HT1A agonist activity using a GTPγS assay. GTPγS binding for 5HT1A was determined according to the procedures of Adlersberg et al. J Neurosci. Res. 2000, 61(6): 674-685. Compounds were incubated for 30 minutes at 30° C. in 20 mM HEPES, pH7.4, 100 mM NaCl, 10 mM MgCl2, 1 mM DTT, 1 mM EDTA with human CHO cells Chinese hamster. Quantitation of bound [^35S] GTPγS was determined with agonist significance criteria of >50% increase in bound [^35S] GTPγS relative to serotonin response.

α1-adrenergic receptor = assay: α1-Adrenergic Receptor Assay, [3H]Prazosin competition binding; parameters: species or system rat; details: selectivity 5HT1A over α1-adrenergic
Procedure: The determination of binding of the ligand with α1-adrenergic receptor was carried out according to the procedures described in Greengrass P and Bremner R. Eur. J. Pharmacol. 1979, 55: 323-326.
For competition binding, radiolabelled 0.25 nM [3H]Prazosin was incubated for 30 minutes at 25° C. with al transfected wisatar rat cerebral cortex cell membranes in 50 mM Tris-HCl, pH7.4, 0.1% Ascorbic acid, 10 mM Pargyline and increasing concentrations of test compound. The non specific ligand used was 0.1 uM Prazosin. Significance criteria was 50% of max stimulation or inhibition.

dopamine D2L receptor = biological target: T2, dopamine D2L receptor (Homo sapiens, UniProt P14416); assay: Dopamine D2 Receptor Assay, [3H]Spiperone competition binding; details: selectivity 5HT1A over dopamine D2
T2 construct: expressed in transfected cells; host or cells: CHO cells
T2 sequence (P14416 whole entry): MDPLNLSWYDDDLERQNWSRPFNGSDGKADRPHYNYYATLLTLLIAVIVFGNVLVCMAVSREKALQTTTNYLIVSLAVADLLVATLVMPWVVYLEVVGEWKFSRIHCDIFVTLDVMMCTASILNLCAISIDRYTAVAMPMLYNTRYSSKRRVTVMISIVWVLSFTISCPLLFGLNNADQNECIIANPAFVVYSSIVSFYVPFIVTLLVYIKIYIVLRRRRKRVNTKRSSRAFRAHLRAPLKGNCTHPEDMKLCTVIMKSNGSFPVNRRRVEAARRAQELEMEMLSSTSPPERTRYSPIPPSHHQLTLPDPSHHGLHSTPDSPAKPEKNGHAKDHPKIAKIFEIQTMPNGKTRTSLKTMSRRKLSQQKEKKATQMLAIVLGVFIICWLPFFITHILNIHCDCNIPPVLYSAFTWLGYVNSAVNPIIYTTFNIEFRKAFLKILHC
Procedure: The determination of binding of the ligand with dopamine D2L receptor was carried out according to the procedures described in Grandy et al. Proc. Natl. Acad. Sci. 1989, 86: 9762-9766.
For competition binding, radiolabelled 0.16 nM [3H]Spiperone was incubated for 120 minutes at 25° C. with D2L transfected human recombinant CHO cells in 50 mM Tris-HCl, pH7.4, 150 mM NaCl, 1.4 mM Ascorbic acid, 0.001% BSA and increasing concentrations of test compound. The non-specific ligand used was […] haloperidol. Significance criteria was 50% of max stimulation or inhibition.

[1] = Metabolic stability in rat liver microsomes; format: in vitro ADME; details: pH 7.4
[2] = Metabolic stability in human liver microsomes; format: in vitro ADME; details: pH 7.4, 1 μM compound, 0.3 mg/mL microsomes, pH7.4, 37° C.
Procedure: Metabolic stability of selected compounds in human liver microsomes was assessed using the procedure described by Kuhnz and Gieschen, Drug Metab. Dispos. 1998, 26: 1120-1127. Compounds (1 μM) were measured by LC/MS following 0 and 60 minute incubations with human liver microsomes (0.3 mg/mL) at pH7.4 and 37° C.

SMILES: COc1ccccc1N1CCN(CCc2n[nH]c(=O)n2Cc2ccc(Cl)c(Cl)c2)CC1 [Example 21, 4-(3,4-Dichloro-benzyl)-5-{2-[4-(2-methoxy-phenyl)-piperazin-1-yl]-ethyl}-2,4-dihydro-[1,2,4]triazol-3-one]
EC50 (5HT1A): < 200 nM

SMILES: COc1ccccc1N1CCN(CCc2n[nH]c(=O)n2Cc2ccccc2)CC1 [Example 13, 4-Benzyl-5-{2-[4-(2-methoxy-phenyl)-piperazin-1-yl]-ethyl}-2,4-dihydro-[1,2,4]triazol-3-one]
half-life at 1 μM [1]: ≥ 1 h
half-life at 1 μM [2]: ≥ 1 h

SMILES: COc1ccccc1N1CCN(CCc2n[nH]c(=O)n2CC2CCCCC2)CC1 [Example 17, 4-(Cyclohexylmethyl)-5-{2-[4-(2-methoxyphenyl)piperazino]ethyl}-2,4-dihydro-3H-1,2,4-triazol-3-one]
half-life at 1 μM [1]: ≥ 1 h
half-life at 1 μM [2]: ≥ 1 h

SMILES: COc1ccccc1N1CCN(CCc2n[nH]c(=O)n2Cc2cccc(F)c2)CC1 [Example 26, 4-(3-Fluoro-benzyl)-5-{2-[4-(2-methoxy-phenyl)-piperazin-1-yl]-ethyl}-2,4-dihydro-[1,2,4]triazol-3-one]
half-life at 1 μM [1]: ≥ 1 h
half-life at 1 μM [2]: ≥ 1 h

SMILES: COc1ccccc1N1CCN(CCc2n[nH]c(=O)n2C2CCCCCCC2)CC1 [Example 10, 4-Cyclooctyl-5-{2-[4-(2-methoxyphenyl)piperazino]ethyl}-2,4-dihydro-3H-1,2,4-triazol-3-one]
EC50 (5HT1A): < 200 nM

Continued, values first:

affinity for 5HT1A relative to affinity for α1-adrenergic receptors (α1-adrenergic receptor): more than fifty times greater
affinity for 5HT1A relative to affinity for dopamine D2 receptors (dopamine D2L receptor): more than fifty times greater
SMILES: COc1ccccc1N1CCN(C(C)Cc2nn(C)c(=O)n2CC2CCCCC2)CC1 (stereo not drawn) [Example 37, 4-(Cyclohexylmethyl)-5-{2-[4-(2-methoxyphenyl)piperazin-1-yl]propyl}-2-methyl-2,4-dihydro-3H-1,2,4-triazol-3-one]

EC50 (5HT1A): < 200 nM
SMILES: COc1ccccc1N1CCN(CCc2nn(C)c(=O)n2CC2CCCCC2)CC1 [Example 42, 4-(Cyclohexylmethyl)-5-{2-[4-(2-methoxyphenyl)piperazino]ethyl}-2-methyl-2,4-dihydro-3H-1,2,4-triazol-3-one]

EC50 (5HT1A): < 200 nM
SMILES: COc1ccccc1N1CCN(CCc2n[nH]c(=O)n2-c2ccc(Cl)c(Cl)c2)CC1 [Example 33, 4-(3,4-Dichloro-phenyl)-5-{2-[4-(2-methoxy-phenyl)-piperazin-1-yl]-ethyl}-2,4-dihydro-[1,2,4]triazol-3-one]

affinity for 5HT1A relative to affinity for α1-adrenergic receptors (α1-adrenergic receptor): more than fifty times greater
SMILES: CC(=O)Nc1cccc(N2CCN(CCCc3n[nH]c(=O)n3CC3CCCCC3)CC2)c1 [Example 39, N-(3-{4-[3-(4-Cyclohexylmethyl-5-oxo-4,5-dihydro-1H-[1,2,4]triazol-3-yl)-propyl]-piperazin-1-yl}-phenyl)-acetamide]

EC50 (5HT1A): < 200 nM
SMILES: COc1ccccc1N1CCN(CCc2n[nH]c(=O)n2C(c2ccccc2)c2ccccc2)CC1 [Example 28, 4-Benzhydryl-5-{2-[4-(2-methoxy-phenyl)-piperazin-1-yl]-ethyl}-2,4-dihydro-[1,2,4]triazol-3-one]

EC50 (5HT1A): < 200 nM
affinity for 5HT1A relative to affinity for dopamine D2 receptors (dopamine D2L receptor): more than a thousand times greater
SMILES: CC(=O)Nc1cccc(N2CCN(CCc3nn(C)c(=O)n3CC3CCCCC3)CC2)c1 [Example 41, N-[3-(4-{2-[4-(Cyclohexylmethyl)-1-methyl-5-oxo-4,5-dihydro-1H-1,2,4-triazol-3-yl]ethyl}piperazino)phenyl]acetamide]

affinity for 5HT1A relative to affinity for α1-adrenergic receptors (α1-adrenergic receptor): more than fifty times greater
affinity for 5HT1A relative to affinity for dopamine D2 receptors (dopamine D2L receptor): more than fifty times greater
SMILES: CC(=O)Nc1cccc(N2CCN(CCc3n[nH]c(=O)n3CC3CCCCC3)CC2)c1 [Example 38, N-[3-(4-{2-[4-(Cyclohexylmethyl)-5-oxo-4,5-dihydro-1H-1,2,4-triazol-3-yl]ethyl}piperazin-1-yl)phenyl]acetamide]
